Source: US10722495B2, “Cyanoindazole compounds and uses thereof” (Incyte Corporation, priority 2017, dated 2020)

target: HPK1 (Homo sapiens (Human), UniProt Q92918); assay: HPK1 Kinase Binding Assay; details: active HPK1 (SignalChem M23-11G), tracer 222, LanthaScreen Eu-Anti GST antibody, one hour incubation at 25° C.
Method: Example A. HPK1 Kinase Binding Assay
A stock solution of 1 mM test compound was prepared in DMSO. The compound plate was prepared by 3-fold and 11-point serial dilutions. 0.1 μL of the compound in DMSO was transferred from the compound plate to the white 384 well polystyrene plates. The assay buffer contained 50 mM HEPES, pH 7.5, 0.01% Tween-20, 5 mM MgCl2, 0.01% BSA, and 5 mM DTT. 5 μl of 4 nM active HPK1 (SignalChem M23-11G) prepared in the buffer was added to the plate. The enzyme concentration given was based on the given stock concentration reported by the vender. 5 μl of 18 nM tracer 222 (ThermoFisher PV6121) and 4 nM LanthaScreen Eu-Anti GST antibody (ThermoFisher PV5595) were added. After one hour incubation at 25° C., the plates were read on a PHERAstar FS plate reader (BMG Labtech). Ki values were determined.

Sequence of HPK1 (Q92918 1-346): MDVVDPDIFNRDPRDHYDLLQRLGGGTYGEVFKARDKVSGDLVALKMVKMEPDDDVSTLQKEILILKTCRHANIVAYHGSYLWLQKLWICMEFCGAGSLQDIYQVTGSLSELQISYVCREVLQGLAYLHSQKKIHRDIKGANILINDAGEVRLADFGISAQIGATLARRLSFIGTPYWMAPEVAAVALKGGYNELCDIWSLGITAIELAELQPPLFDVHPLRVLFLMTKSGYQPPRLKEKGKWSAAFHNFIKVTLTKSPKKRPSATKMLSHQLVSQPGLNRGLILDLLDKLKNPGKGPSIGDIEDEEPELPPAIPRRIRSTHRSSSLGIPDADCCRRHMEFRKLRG

Ki, ≤ 100 nM:
CNCc1cc(C)c(-c2cc3c(-c4ccc(C(C)(C)O)nc4)n[nH]c3cc2C#N)c(F)c1 [Example 33, 5-(2-Fluoro-6-methyl-4-((methylamino)methyl)phenyl)-3-(6-(2-hydroxypropan-2-yl)pyridin-3-yl)-1H-indazole-6-carbonitrile]
CNCc1cc(C)c(-c2cc3c(-c4ccc(C)nc4)n[nH]c3cc2C#N)c(F)c1 [Example 34, 5-(2-Fluoro-6-methyl-4-((methylamino)methyl)phenyl)-3-(6-methylpyridin-3-yl)-1H-indazole-6-carbonitrile]
CNCc1cc(C)c(-c2cc3c(-c4cnc(OC)nc4)n[nH]c3cc2C#N)c(F)c1 [Example 35, 5-(2-Fluoro-6-methyl-4-((methylamino)methyl)phenyl)-3-(2-methoxypyrimidin-5-yl)-1H-indazole-6-carbonitrile]
CNCc1cc(C)c(-c2cc3c(-c4cnco4)n[nH]c3cc2C#N)c(F)c1 [Example 36, 5-(2-Fluoro-6-methyl-4-((methylamino)methyl)phenyl)-3-(oxazol-5-yl)-1H-indazole-6-carbonitrile]
CNCc1cc(C)c(-c2cc3c(-c4cnsc4)n[nH]c3cc2C#N)c(F)c1 [Example 37, 5-(2-Fluoro-6-methyl-4-((methylamino)methyl)phenyl)-3-(isothiazol-4-yl)-1H-indazole-6-carbonitrile]
CNCc1cc(C)c(-c2cc3c(-c4cnoc4)n[nH]c3cc2C#N)c(F)c1 [Example 38, 5-(2-Fluoro-6-methyl-4-((methylamino)methyl)phenyl)-3-(isoxazol-4-yl)-1H-indazole-6-carbonitrile]
CNCc1cc(C)c(-c2cc3c(-c4ccc(C5CCOCC5)cc4)n[nH]c3cc2C#N)c(F)c1 [Example 39, 5-(2-Fluoro-6-methyl-4-((methylamino)methyl)phenyl)-3-(4-(tetrahydro-2H-pyran-4-yl)phenyl)-1H-indazole-6-carbonitrile]
CNCc1cc(C)c(-c2cc3c(-c4cnc(C)o4)n[nH]c3cc2C#N)c(F)c1 [Example 40, 5-(2-Fluoro-6-methyl-4-((methylamino)methyl)phenyl)-3-(2-methyloxazol-5-yl)-1H-indazole-6-carbonitrile]
CNCc1cc(C)c(-c2cc3c(-c4ccc(N5CC[C@H](F)C5)nc4)n[nH]c3cc2C#N)c(F)c1 [Example 41, 5-(2-Fluoro-6-methyl-4-((methylamino)methyl)phenyl)-3-(6-((S)-3-fluoropyrrolidin-1-yl)pyridin-3-yl)-1H-indazole-6-carbonitrile]
CNCc1cc(C)c(-c2cc3c(-c4ccc(N5CCC(O)CC5)nc4)n[nH]c3cc2C#N)c(F)c1 [Example 42, 5-(2-Fluoro-6-methyl-4-((methylamino)methyl)phenyl)-3-(6-(4-hydroxypiperidin-1-yl)pyridin-3-yl)-1H-indazole-6-carbonitrile]
CC[C@@H](C)Nc1ccc(-c2n[nH]c3cc(C#N)c(-c4c(C)cc(CNC)cc4F)cc23)cn1 [Example 43, 3-(6-(((R)-sec-Butyl)amino)pyridin-3-yl)-5-(2-fluoro-6-methyl-4-((methylamino)methyl)phenyl)-1H-indazole-6-carbonitrile]
CNCc1cc(C)c(-c2cc3c(-c4ccc(N5CC(CO)C5)nc4)n[nH]c3cc2C#N)c(F)c1 [Example 44, 5-(2-Fluoro-6-methyl-4-((methylamino)methyl)phenyl)-3-(6-(3-(hydroxymethyl)azetidin-1-yl)pyridin-3-yl)-1H-indazole-6-carbonitrile]
CNCc1cc(C)c(-c2cc3c(-c4cccc(N5CCC(O)CC5)n4)n[nH]c3cc2C#N)c(F)c1 [Example 45, 5-(2-Fluoro-6-methyl-4-((methylamino)methyl)phenyl)-3-(6-(4-hydroxypiperidin-1-yl)pyridin-2-yl)-1H-indazole-6-carbonitrile]
CNCc1cc(C)c(-c2cc3c(-c4cccc(N5CCN(C)CC5)n4)n[nH]c3cc2C#N)c(F)c1 [Example 46, 5-(2-Fluoro-6-methyl-4-((methylamino)methyl)phenyl)-3-(6-(4-methylpiperazin-1-yl)pyridin-2-yl)-1H-indazole-6-carbonitrile]
CNCc1cc(C)c(-c2cc3c(-c4cccc(N5CC[C@H](N(C)C)C5)n4)n[nH]c3cc2C#N)c(F)c1 [Example 47, 3-(6-((S)-3-(Dimethylamino)pyrrolidin-1-yl)pyridin-2-yl)-5-(2-fluoro-6-methyl-4-((methylamino)methyl)phenyl)-1H-indazole-6-carbonitrile]
Cc1ccccc1-c1cc2c(-c3cnn(C)c3)n[nH]c2cc1C#N [Example 48, 3-(1-Methyl-1H-pyrazol-4-yl)-5-o-tolyl-1H-indazole-6-carbonitrile]
Cn1cc(-c2n[nH]c3cc(C#N)c(-c4ccccc4F)cc23)cn1 [Example 49, 5-(2-Fluorophenyl)-3-(1-methyl-1H-pyrazol-4-yl)-1H-indazole-6-carbonitrile]
COc1cccc(F)c1-c1cc2c(-c3cnn(C)c3)n[nH]c2cc1C#N [Example 50, 5-(2-Fluoro-6-methoxyphenyl)-3-(1-methyl-1H-pyrazol-4-yl)-1H-indazole-6-carbonitrile]
Cc1cccc(F)c1-c1cc2c(-c3cnn(C)c3)n[nH]c2cc1C#N [Example 51, 5-(2-Fluoro-6-methylphenyl)-3-(1-methyl-1H-pyrazol-4-yl)-1H-indazole-6-carbonitrile]
